Experimental data: ChEMBL document CHEMBL1149607, “Synthesis, characterization and antimicrobial activity of new aliphatic sulfonamide” (2007)
≈ marks a conversion by molar mass, not a printed value.

What was measured:
Format in all cases: functional
Escherichia coli [1] = experiment: Antibacterial activity against Escherichia coli ATCC 11230 after 24 hrs by disc diffusion method
Listeria monocytogenes [2] = experiment: Antibacterial activity against Listeria monocytogenes Li6 isolate by microdilution broth method
Staphylococcus aureus [3] = experiment: Antibacterial activity against Staphylococcus aureus ATCC 25923 after 24 hrs by disc diffusion method
Candida albicans [4] = experiment: Antifungal activity against Candida albicans after 48 hrs by disc diffusion method
Staphylococcus aureus [5] = experiment: Antibacterial activity against Staphylococcus aureus ATCC 25923 by microdilution broth method
Listeria monocytogenes [6] = experiment: Antibacterial activity against Listeria monocytogenes Li6 isolate after 24 hrs by disc diffusion method
Bacillus cereus [7] = experiment: Antibacterial activity against Bacillus cereus ATCC […] by microdilution broth method
Escherichia coli [8] = experiment: Antibacterial activity against Escherichia coli ATCC 11230 by microdilution broth method
Candida albicans [9] = experiment: Antifungal activity against Candida albicans by microdilution broth method
Bacillus cereus [10] = experiment: Antibacterial activity against Bacillus cereus ATCC […] after 24 hrs by disc diffusion method
Escherichia coli [11] = experiment: Antibacterial activity against Escherichia coli ATCC 11230 at 10 ug after 24 hrs by disc diffusion method; settings: ATCC 11230, 24 h, read-out: IZ
Candida albicans [12] = experiment: Antifungal activity against Candida albicans at 50 ug after 48 hrs by disc diffusion method; settings: read-out: IZ
Bacillus cereus [13] = experiment: Antibacterial activity against Bacillus cereus ATCC […] at 1 ug after 24 hrs by disc diffusion method; settings: read-out: IZ
Staphylococcus aureus [14] = experiment: Antibacterial activity against Staphylococcus aureus ATCC 25923 at 10U by disc diffusion method

Row | SMILES | MIC (Listeria monocytogenes [2]) [µg/mL] | MIC (Staphylococcus aureus [5]) [µg/mL] | MIC (Bacillus cereus [7]) [µg/mL] | MIC (Escherichia coli [8]) [µg/mL] | MIC (Candida albicans [9]) [µg/mL] | inhibition zone (IZ) (Escherichia coli [1]) [mm] | inhibition zone (IZ) (Staphylococcus aureus [3]) [mm] | inhibition zone (IZ) (Candida albicans [4]) [mm] | inhibition zone (IZ) (Listeria monocytogenes [6]) [mm] | inhibition zone (IZ) (Bacillus cereus [10]) [mm] | zone of inhibition at 10 µg/disc (Escherichia coli [11]) [mm] | zone of inhibition at 50 µg/disc (Candida albicans [12]) [mm] | zone of inhibition at 1 µg/disc (Bacillus cereus [13]) [mm] | inhibition zone (IZ) (Staphylococcus aureus [14]) [mm]
1 | CCCS(=O)(=O)NCCCNS(=O)(=O)CCC | 532 (≈ 1860 µM) | 456 (≈ 1590 µM) | 380 (≈ 1330 µM) | 228 (≈ 796 µM) | 532 (≈ 1860 µM) | 12 | 11 | 12 | 11 |  |  |  |  | 
2 | CCCS(=O)(=O)NCCCCNS(=O)(=O)CCC | 228 (≈ 759 µM) | 336 (≈ 1120 µM) | 336 (≈ 1120 µM) | 240 (≈ 799 µM) | 336 (≈ 1120 µM) | 12 |  |  |  |  |  |  |  | 
3 | CCCS(=O)(=O)NCCNS(=O)(=O)CCC | 300 (≈ 1100 µM) | 300 (≈ 1100 µM) | 250 (≈ 918 µM) | 150 (≈ 551 µM) | 300 (≈ 1100 µM) | 11 | 12 |  | 16 |  |  |  |  | 
4 | CC1(C)S[C@@H]2[C@H](NC(=O)[C@H](N)c3ccccc3)C(=O)N2[C@H]1C(=O)O [AMPICILLIN] |  |  |  |  |  |  |  |  |  |  | 9 |  |  | 
5 | CC(=O)N1CCN(c2ccc(OC[C@H]3CO[C@](Cn4ccnc4)(c4ccc(Cl)cc4Cl)O3)cc2)CC1 [KETOCONAZOLE] |  |  |  |  |  |  |  |  |  |  |  | 16 |  | 
6 | Cc1onc(-c2ccccc2)c1C(=O)N[C@@H]1C(=O)N2[C@@H]1SC(C)(C)[C@@H]2C(=O)O [OXACILLIN] |  |  |  |  |  |  |  |  |  |  |  |  | 9 | 
7 | CC1(C)S[C@@H]2[C@H](NC(=O)Cc3ccccc3)C(=O)N2[C@H]1C(=O)O [PENICILLIN G] |  |  |  |  |  |  |  |  |  |  |  |  |  | 19

The next lines start with results.

Row | MIC (Listeria monocytogenes [2]) [µg/mL] | MIC (Staphylococcus aureus [5]) [µg/mL] | MIC (Bacillus cereus [7]) [µg/mL] | MIC (Escherichia coli [8]) [µg/mL] | MIC (Candida albicans [9]) [µg/mL] | SMILES | inhibition zone (IZ) (Escherichia coli [1]) [mm] | inhibition zone (IZ) (Staphylococcus aureus [3]) [mm] | inhibition zone (IZ) (Candida albicans [4]) [mm] | inhibition zone (IZ) (Listeria monocytogenes [6]) [mm] | inhibition zone (IZ) (Bacillus cereus [10]) [mm] | zone of inhibition at 10 µg/disc (Escherichia coli [11]) [mm] | zone of inhibition at 50 µg/disc (Candida albicans [12]) [mm] | zone of inhibition at 1 µg/disc (Bacillus cereus [13]) [mm] | inhibition zone (IZ) (Staphylococcus aureus [14]) [mm]
8 | 216 (≈ 719 µM) | 216 (≈ 719 µM) | 243 (≈ 809 µM) | 243 (≈ 809 µM) | 324 (≈ 1080 µM) | CCCCS(=O)(=O)NCCNS(=O)(=O)CCCC | 10 |  |  |  |  |  |  |  | 
9 | 225 (≈ 715 µM) | 270 (≈ 859 µM) | 180 (≈ 572 µM) | 225 (≈ 715 µM) | 315 (≈ 1000 µM) | CCCCS(=O)(=O)NCCCNS(=O)(=O)CCCC | 10 |  | 10 | 11 | 10 |  |  |  | 
10 | 432 (≈ 1260 µM) | 432 (≈ 1260 µM) | 540 (≈ 1580 µM) | 486 (≈ 1420 µM) | 540 (≈ 1580 µM) | CCCCS(=O)(=O)NCCCCCNS(=O)(=O)CCCC | 12 |  | 13 |  |  |  |  |  | 
11 | 648 (≈ 1970 µM) | 648 (≈ 1970 µM) | 463 (≈ 1410 µM) | 555 (≈ 1690 µM) | 555 (≈ 1690 µM) | CCCCS(=O)(=O)NCCCCNS(=O)(=O)CCCC | 11 | 10 | 12 |  |  |  |  |  | 
